From patent US9328099B2, “Cyanomethylpyrazole carboxamides as janus kinase inhibitors” (Merck Sharp & Dohme Corp., priority 2011, dated 2016) come the findings set out here.

Test [1] concerns the target JAK2 (Homo sapiens (Human), UniProt O60674). Nature of the test: Jak Biochemical HTRF Assay, JAK2. As to conditions: HTRF biochemical assay, GST-tagged catalytic domain; top concentration tested […]. An excerpt: (§1) Jak Biochemical HTRF Assay Protocol
(§2) Subsequent reagent additions employed an Agilent Bravo.

The target of test [2] is JAK1 (Homo sapiens (Human), UniProt P23458). Kind of test: Jak Biochemical HTRF Assay, JAK1. As to conditions: HTRF biochemical assay, GST-tagged catalytic domain; top concentration tested […]; read-out: JAK1 IC50.
JAK1, sequence (P23458 875-1153): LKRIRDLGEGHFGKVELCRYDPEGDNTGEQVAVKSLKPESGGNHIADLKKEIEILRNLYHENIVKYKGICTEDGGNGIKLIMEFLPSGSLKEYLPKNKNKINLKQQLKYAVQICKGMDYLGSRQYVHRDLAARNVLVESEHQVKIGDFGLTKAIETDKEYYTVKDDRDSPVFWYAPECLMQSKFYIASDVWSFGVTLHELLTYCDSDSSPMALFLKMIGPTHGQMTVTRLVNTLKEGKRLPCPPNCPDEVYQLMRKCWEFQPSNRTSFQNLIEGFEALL
From the text: as §1, §2

pIC50: −log10 of the molar value.

JAK2, sequence (O60674 849-1124): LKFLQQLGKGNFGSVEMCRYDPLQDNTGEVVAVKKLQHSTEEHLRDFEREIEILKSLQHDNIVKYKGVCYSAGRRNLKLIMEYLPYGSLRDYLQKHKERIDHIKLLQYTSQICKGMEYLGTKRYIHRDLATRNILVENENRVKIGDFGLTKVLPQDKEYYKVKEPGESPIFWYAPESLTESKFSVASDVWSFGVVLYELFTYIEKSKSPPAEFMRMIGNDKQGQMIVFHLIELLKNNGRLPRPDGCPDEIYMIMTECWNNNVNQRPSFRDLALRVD

Broadly, the pIC50 is the negative decadic logarithm of the IC50, by convention in mol/L. Consider `N#CCC1(n2cc(C(N)=O)c(Nc3ccnc(F)c3)n2)CCC(N2CCc3ccccc32)CC1` (stereo not drawn) [Example 40-54, Cis or trans 1-[1-(cyanomethyl)-4-(2,3-dihydro-1H-indol-1-yl)cyclohexyl]-3-[(2-fluoropyridin-4-yl)amino]-1H-pyrazole-4-carboxamide], for which the pIC50 in test [1] was 7.62; in test [2], 9.05.

Take `N#CCC1(n2cc(C(N)=O)c(Nc3ccc(F)cc3)n2)CCC(Nc2cccnc2)CC1` (stereo not drawn) [Example 40-39, Cis or trans 1-[1-(cyanomethyl)-4-(pyridin-3-ylamino)cyclohexyl]-3-[(4-fluorophenyl)amino]-1H-pyrazole-4-carboxamide]: the pIC50 in test [1] is 6.12; in test [2], 7.52.

`N#CCC1(n2cc(C(N)=O)c(Nc3ccnc(F)c3)n2)CCN(Cc2ncco2)CC1` [Example 22-28, 1-[4-(cyanomethyl)-1-(1,3-oxazol-2-ylmethyl)piperidin-4-yl]-3-[(2-fluoropyridin-4-yl)amino]-1H-pyrazole-4-carboxamide]: the pIC50 is 7.14 in test [1] and 8.52 in test [2].

Take `Cc1cncc(Nc2nn(C3(CC#N)CCN(C(=O)OC(C)(C)C)CC3)cc2C(N)=O)n1` [Example 13-8, tert-butyl 4-(4-carbamoyl-3-(6-methylpyrazine-2-ylamino)-1H-pyrazol-1-yl)-4-(cyanomethyl)piperidine-1-carboxylate]: the pIC50 in test [1] was 6.75; in test [2], 8.05.

Take `CC(C)(C)OC(=O)N1CCC(CC#N)(n2cc(C(N)=O)c(Nc3cnc(C#N)nc3)n2)CC1` [Example 4-6, tert-butyl 4-{4-carbamoyl-3-[(2-cyanopyrimidin-5-yl)amino]-1H-pyrazol-1-yl}-4-(cyanomethyl)piperidine-1-carboxylate]: the pIC50 in test [1] was 7.42; in test [2], 8.52.

`CC(C)S(=O)(=O)N1CCC(CC#N)(n2cc(C(N)=O)c(Nc3ccccc3)n2)CC1` [Example 37-1, 1-[4-(Cyanomethyl)-1-(isopropylsulfonyl)piperidin-4-yl]-3-(phenylamino)-1H-pyrazole-4-carboxamide]: the pIC50 in test [1] is 7.89; in test [2], 8.70.

In the case of `N#CCC1(n2cc(C(N)=O)c(Nc3ccnc(F)c3)n2)CCN(C(=O)CCC(F)(F)F)CC1` [Example 34-57, 1-[4-(cyanomethyl)-1-(4,4,4-trifluorobutanoyl)piperidin-4-yl]-3-[(2-fluoropyridin-4-yl)amino]-1H-pyrazole-4-carboxamide], the pIC50 in test [1] was 8.05; in test [2], 10.00.

For the compound `N#CCC1(n2cc(C(N)=O)c(Nc3ccc(S(=O)(=O)C(F)F)cc3)n2)CCC(N2CCC(F)(F)CC2)CC1` (stereo not drawn) [Example 40-31, Cis or trans 1-[1-(cyanomethyl)-4-(4,4-difluoropiperidin-1-yl)cyclohexyl]-3-({4-[(difluoromethyl)sulfonyl]phenyl}amino)-1H-pyrazole-4-carboxamide], the pIC50 was 8.70 in test [1] and 10.00 in test [2].

As to `N#CCC1(n2cc(C(N)=O)c(Nc3ccc(F)cc3)n2)CCC(Nc2ccccn2)CC1` (stereo not drawn) [Example 40-12, Cis or trans 1-[1-(cyanomethyl)-4-(pyridin-2-ylamino)cyclohexyl]-3-[(4-fluorophenyl)amino]-1H-pyrazole-4-carboxamide], the pIC50 in test [1] is 7.14; in test [2] it was 8.70.

As for `CN(C)S(=O)(=O)c1ccc(Nc2nn(C3(CC#N)CCN(C(=O)OC(C)(C)C)CC3)cc2C(N)=O)cc1` [Example 9-21, tert-butyl 4-(4-carbamoyl-3-{[4-(dimethylsulfamoyl)phenyl]amino}-1H-pyrazol-1-yl)-4-(cyanomethyl)piperidine-1-carboxylate], the results for the negative logarithm of the IC50 (pIC50) in test [1] and in test [2] were 9.10 and 9.52, respectively.

For the compound `CCCCC(=O)N1CCC(CC#N)(n2cc(C(N)=O)c(Nc3ccccc3)n2)CC1` [Example 34-4, 1-[4-(cyanomethyl)-1-pentanoylpiperidin-4-yl]-3-(phenylamino)-1H-pyrazole-4-carboxamide], the pIC50 was 7.15 in test [1] and 7.92 in test [2].
